What was measured:
CD4 = CD4 expression on RH9 cells stimulated with TPA; type: cell-based, human
Procedure: (§1) FIG. 11. Cultures of RH9 cells were incubated with 10 ng/ml PMA (TPA) or 10 μg/ml antibody to the CD3 cell surface antigen or in medium alone. Comparisons are presented for each day of analysis for expression of CD4 (left panel) or CS3 binding (right panel). 0.50% of RH9 cells bound CS3-HSA-FITC. Relative to control cultures treatment with anti-CD3 increased CS3 domain expressing cells by 71% at 48 hours and 56% at 72 hours, while TPA increased CS3-binding by 32% at 72 hours. CS3-HSA-FITC fluorescence intensity, reflecting the number of receptors per cell, increased while CD4 expression decreased in intensity and number of positive cells (8% at 24 hours).

CS3 binding domain = assay: CS3 binding on RH9 cells stimulated with anti-CD3 or TPA; type: cell-based, human
Procedure: as §1

CCCCCCCCCCCCCC(=O)O[C@@H]1[C@@H](C)[C@@]2(O)[C@@H](C=C(CO)C[C@]3(O)C(=O)C(C)=C[C@@H]23)[C@@H]2C(C)(C)[C@]12OC(C)=O [TPA, tetraphorbol 13-myristyl acetate]
CD4 expression after treatment (CD4): lost | CS3 binding / receptor density after stimulation (CS3 binding domain): CS3 binding was increased | increase in CS3 domain expressing cells / CS3-binding relative to control cultures (CS3 binding domain; 72 hours): 32%

From patent publication US5567805A, “The cellular receptor for the CS3 peptide of human immunodeficiency virus” (priority 1994, dated 1996)
